melting point [°C] | SMILES
133 to 136 | Cc1cc(C)cc(C(=O)Cc2ccnc(NC(=O)OC(C)(C)C)c2)c1
107 to 108 | COc1cc(C(C)=O)cc(OC)c1OCCCN1CCC(c2noc3cc(F)ccc23)CC1
111 to 113 | N#Cc1ccc(F)cc1-c1ccc(F)cc1
157 | CCc1cccc(C)c1COc1cc(C(=O)OC)cc2c1nc(C)n2C
215 to 217 | CCCn1c(=O)c2c(nc(C=Cc3ccc(C(=O)O)cc3)n2C)n(CCC)c1=O
121 to 123 | CCOc1ccc(C2=NN(c3ccc(C(=O)N4CCN(c5ccc(C(F)(F)F)cn5)CC4)cc3)C(=O)[C@@H]3CC=CC[C@H]23)cc1OCC
120 to 121 | CCC1(C)OC(c2ccc(S(N)(=O)=O)cc2)=C(c2ccsc2)C1=O (stereo not given)
78 to 80 | CC(C)Oc1ccccc1NC(=O)Nc1ccc2cnccc2n1
218 to 220 | CC(=O)N1CCN(Cc2nc(-c3ccc4c(c3)Nc3ccccc3S4)cs2)CC1
194 to 197 | C=CCn1cc(C(=O)O)c(=O)c2cc(F)c(F)c(F)c21
257 to 259 | CCOC(=O)c1cn(CC)c2c(=O)c3cc(Cl)ccc3oc2c1=O
85 to 87 | C=C(C)COc1ccc2c(C)cc(=O)oc2c1C(=O)C=Cc1cccc(OC)c1
70 to 73 | CC(C)(C)C(=O)C=C(c1ccccc1)n1cncn1
141 | COc1cc(/C=C(\C#N)c2c[nH]c3ccc(OC)cc23)cc(OC)c1
156 to 157 | COC(=O)c1ccc(/C=C/c2nc(-c3ccccc3)c(C)s2)cc1
113 to 114 | O=S(=O)(c1ccccc1)c1ccc(Oc2ccc(Cl)c(Cl)c2)nc1
133 to 136 | COc1ccc(NC(=O)C2(C(=O)O)CC2)cc1
88 | CCCC(CCC)(CCC)NC(=O)N(C)C
150 | O=C(c1cccnc1-c1ccncc1)N1CCC(O)(Cc2ccccc2)CC1
110 to 120 | CCn1c(-c2ccc(OC)c(OC)c2)cc(=O)n(C)c1=O
237 to 239 | CC(=O)Nc1ccc(Cn2c3c(c4cc(F)cc(F)c42)CCCC3CC(=O)O)cc1 (stereo not given)
97 to 102 | CCCc1c(OCCCCC(=O)O)ccc(C(C)=O)c1O
130 to 131 | Cc1noc(C)c1S(=O)(=O)Nc1ccc(Cl)cc1[N+](=O)[O-]
55 to 57 | CCN(CC)CCCNC(=O)Cn1cc(-c2ccccc2)cn1

melting point [°C] | SMILES
186 | CC(C)(C)c1ccc(C(=O)N[C@H]2CC[C@H](CCN3CCN(c4nccc5c4CCO5)CC3)CC2)cc1
224 to 228 | CC(=O)c1ccc2ccc(C(=O)O)cc2c1
151 | CCOC(=O)CN1CC(=O)N(C)c2ccc(NC(=O)NCc3ccccc3)cc2C1=O
62 to 64 | COC(=O)C(C)=Cc1ccc(OCCCNc2ccc(Cl)cc2)cc1
81 to 82 | CC(=O)OCC(C(OC(C)=O)c1ccc(Br)cc1)[N+](=O)[O-] (stereo not given)
124 to 125 | Cc1nc(-c2noc(Cc3ccccc3)n2)sc1C(=O)NCc1ccccc1
229 to 230 | CC1(C)OC(=O)Nc2ccc(-c3cc(C#N)ccc3F)cc21
51 to 53 | CCCS(=O)c1ncc(C(F)(F)F)cc1Cl (stereo not given)
> 300 | CCCn1c(=O)c2[nH]c(-c3cc(C)n(CC(=O)Nc4ccc(N(C)C)cc4)n3)nc2n(CCC)c1=O
204 | O=C(c1cccs1)c1cnn2c(-c3cccc(-c4nnnn4CC4CCC4)c3)ccnc12
52 to 53 | CCOC(=O)C(Cc1ccc(C)c(OC(F)(F)C(F)F)c1)C(=O)c1ccc(F)cc1 (stereo not given)
181 to 183 | Cc1nc(N)c2nc(C)n(CCCCCSc3ccccc3)c2c1C
144 to 145 | NNC(=O)N(O)Cc1ccc(OCc2csc(-c3ccccc3)n2)cc1
198 to 200 | O=C(O)COc1cccc2c1CCc1sc(SCc3ccc(-c4ccccc4)cc3)nc1-2
91 to 92 | CC(C)C(CN=C(O)C(Cl)=C(Cl)C(=O)O)c1ccc(Cl)cc1 (stereo not given)
159 to 161 | NC(=O)N1C(=O)C(=C(OC(=O)C=CC(=O)OCCCCc2ccccc2)c2cccs2)c2cc(F)c(Cl)cc21
139 to 141 | CCOC(=O)C1=C(C)NC(CF)=C(C(=O)OCC)C1c1cccc([N+](=O)[O-])c1 (stereo not given)
208 to 210 | N[C@H](Cc1ccc(OC(=O)OCc2ccccc2)cc1)C(=O)O
209 to 210 | CS(=O)(=O)c1ccc(-c2cc(C(F)F)nn2-c2ccc(S(N)(=O)=O)cc2)cc1
122 to 124 | CSc1ccc(C(=O)CCC#N)cc1
117 to 118 | CSc1nc(C)c(CCO)c(=O)n1C
248 to 249 | Nc1nc(N)nc(-c2ccc(C#Cc3ccccc3)cc2)n1
107 to 108 | CCCCOc1ccc(F)cc1OCCN1C(=O)c2ccccc2C1=O
203 to 206 | CC(c1oc2ccccc2c(=O)c1-c1cccc(F)c1)n1nc(-c2ccc(F)nc2)c2c(N)ncnc21 (stereo not given)

melting point [°C] | SMILES
123 to 125 | CCOC(=O)c1cc(OC(C)=O)c2c(c1)c1ccccc1n2C
220 to 222 | CC(C)(Cc1ccccc1)C(NC(=O)c1cccnc1)Nc1c(Nc2cccnc2)c(=O)c1=O (stereo not given)
136 to 138 | O=C1Nc2ccccc2N(C(=O)N2CCOC(CCN3CCCCC3)C2)c2ncccc21 (stereo not given)
152 to 155 | Cc1ccc(N2CCN(c3c(C)c(C)c4c(c3C)CC(C)(C)O4)CC2)cc1
205 to 206 | COc1c(-c2cc3c(s2)CCC(CO)=C3)ccc2c(=O)c(C(=O)O)cn(C3CC3)c12
106 to 110 | CN1CC(CCCCN2CCN(c3ccccc3O)CC2)OC1=O (stereo not given)
70.5 to 70.6 | COc1ccc2c(c1)CC(C)CC2=O (stereo not given)
184 to 185 | Cc1nc2nccc(-c3cccs3)n2n1
129 to 131 | Cc1ccc(C(=O)CC(=O)C2CC2)c(S(C)(=O)=O)c1
124 to 125 | Cc1c(C(=O)O)cnn1-c1cc(C(F)(F)F)ccc1Cl
223 | Nc1nc2c(ncn2COCCCO)c(=O)[nH]1
81 to 82 | COc1cc(C=CCO)ccc1OCc1ccccc1
126 to 128 | CON=C(C)c1cc2c(Oc3ccc(Cl)cc3)cncc2s1
93 to 94 | CC(C)(C)OC(=O)N[C@@H](CC1CCCCC1)[C@@H](O)[C@@H](O)CN=[N+]=[N-]
176 to 177 | CON=Cc1cc(-n2c(=O)cc(C(F)(F)F)[nH]c2=O)c(F)cc1Cl
236 to 239 | Cc1c(N2CCN(C=O)C(C)C2)c(F)cc2c(=O)c(C(=O)O)cn(C3CC3)c12 (stereo not given)
155 to 156 | CCOc1nc2c(C)sc(C(=O)OC)c2n1Cc1ccc(-c2ccccc2C#N)cc1
123 to 125 | Cc1noc(NS(=O)(=O)c2cc(F)ccc2F)c1Br
91 | CC[N+](CC)(CC)C1CC(=O)N1C(C(=O)OCc1ccc([N+](=O)[O-])cc1)=C([O-])CCSC (stereo not given)
163 to 165 | CN(C)C(=O)c1ccc(-c2ccc3nnn(Cc4ccc5ncccc5c4)c3n2)cc1F
140 to 142 | CN(O)C(=O)C(=Cc1ccc2ccccc2c1)c1ccc(Cl)cc1
213 to 215 | N#Cc1ccc2c(c1-c1c(C#N)ccc3c1OCO3)OCO2
216 to 218 | Oc1ccc(-n2nc3ccccc3n2)cc1
100 | CNc1ccc2ccccc2c1-c1c(P(c2ccccc2)c2ccccc2)ccc2ccccc12

melting point [°C] | SMILES
241 to 242 | O=C(O)Cc1ccc2oc(-c3ccc(Cl)cc3)nc2c1
130 to 133 | Cc1ccc(C2C(=O)Oc3c2cc(C(C)(C)C)cc3C(C)(C)C)cc1 (stereo not given)
118 to 120 | CCCOc1cc2nc(Cl)nc(Cl)c2cc1OC
182 to 184 | C[C@@H]1c2ccccc2-c2ccc(F)cc2N1C(=O)c1ccc(O)cc1O
223 to 225 | Cc1c(/C=C/C(=O)c2nn(C)c3ccccc23)ncn1C(c1ccccc1)(c1ccccc1)c1ccccc1
80 to 82 | CCC(C)OC1OC(C(O)N(CC(C)C)C(=O)N(CCCl)N=O)C(O)C1O (stereo not given)
54.5 to 56 | Oc1ccc(C2CC2(Cl)Cl)cc1 (stereo not given)
145 | CC(C)N(CCOc1ccccc1NC(=O)c1cccc2[nH]ccc12)C(C)C
92.2 to 98.4 | CCOC(=O)C1=Cc2cc(S(C)=O)ccc2OC1C(F)(F)F (stereo not given)
183 to 185 | CCc1cccc2oc(C(=O)Nc3ccc(-c4ccc(S(=O)(=O)NC(C(=O)OC)C(C)C)cc4)cc3)c(C)c12 (stereo not given)
224 to 226 | COc1c(N2CCC(NC(=O)OC(C)(C)C)C2)c(F)cc2c(=O)c(C(=O)O)cn(C3CC3)c12 (stereo not given)
138 to 139 | CC(=O)OC1C(CO)OC(n2cnc3c(N)ncnc32)C1OC(C)=O (stereo not given)
> 300 | O=C(O)c1ccccc1-c1nnc(-c2ccc(C(F)(F)F)cc2)s1
109 to 113 | CNC(=NC#N)NCCCCCc1csc(NC(=N)N)n1
308 to 309 | Cc1nnc(-c2cc3cccc(NS(=O)(=O)c4cccs4)c3[nH]2)s1
268 to 274 | COCC1COc2cc3ncnc(Nc4cccc(Br)c4)c3cc2O1 (stereo not given)
112 to 114 | COC(=O)Cc1ccc(N)c(O)c1
173 to 175 | O=C1N(Cc2ccc3c(c2)OCCO3)c2ccccc2C12COc1cc3c(cc12)CCO3 (stereo not given)
102 to 103 | CC(C)N(CCCCO)c1cnc(-c2ccccc2)c(-c2ccccc2)n1
128 to 129 | O[C@@H]1CNC[C@H]1Oc1cccc(Cl)c1 (relative stereo)
161 to 163 | CCn1ncnc1COc1nc2c(cc1C(C)(C)C)nnn2-c1ccccc1
32 to 33 | CCCCc1ccc(CCCCCCC(=O)O)cc1
165 to 166 | O=C1CCn2c1ccc2C(=O)c1ccc(Cl)cc1

SMILES | melting point [°C]
CCOC(=O)c1c(C)cc2nc(C)n(-c3ccccc3C)c(=O)c2c1C | 129 to 130
O=C(O)C(Cc1c[nH]cn1)N1C(=O)c2ccccc2C1=O (stereo not given) | 280 to 285
Fc1cccc(F)c1C1=NCC(=S)Nc2ccc(Cl)cc21 | 222 to 224
COc1cc(C2c3cc4c(cc3C(NC3=CC(=O)N(C)C3=O)C3COC(=O)C23)OCO4)cc(OC)c1O (stereo not given) | 238 to 241
N#CC(C#N)=Cc1ccc(C=O)cc1 | 142

Source: a melting point compilation (Tetko et al.; mined from patent text by program, amines drawn as free bases though some values may be those of a salt)
